# What was measured:
# [1] = test system: barnyardgrass; test: Test B pre-/postemergence herbicide test; assay type: in vivo, Echinochloa crus-galli; details: for Plant response rating (0 to 100 scale), Barnyardgrass: 0 is no effect, preemergence; for Barnyardgrass plant response rating: postemergence
# Method in brief: (§1)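 Herbicidal effect was judged by eye on a 0–100 scale after plants stood 13 to 15 days in the greenhouse following pre- or postemergence treatment with surfactant-containing formulations.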
# [2] = test system: Surinam grass; test: Test B pre-/postemergence herbicide test; assay type: in vivo, Urochloa decumbens; details: for Plant response rating (0 to 100 scale), Surinam Grass: 0 is no effect, 100 is complete control, preemergence; for Surinam Grass plant response rating: scale 0 (no effect) to 100 (complete control)
# Method in brief: (§2)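 Evaluation is visual, comparing treated with control plants on a scale where 0 means no effect and 100 means full control. Treatments were preemergence, or postemergence on seedlings 2–18 cm tall, and held 13–15 days in the greenhouse.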
# [3] = test system: cocklebur; test: Test B pre-/postemergence herbicide test; assay type: in vivo, Xanthium strumarium; details: for Plant response rating (0 to 100 scale), Cocklebur: 0 is no effect, preemergence; for Cocklebur plant response rating: postemergence
# Method in brief: as §1
# [4] = test system: corn; test: Test B pre-/postemergence herbicide test; assay type: in vivo, Zea mays; details: for Plant response rating (0 to 100 scale), Corn: 0 is no effect, preemergence; for Corn plant response rating: postemergence
# Method in brief: as §2
# [5] = test system: large crabgrass; test: Test B pre-/postemergence herbicide test; assay type: in vivo, Digitaria sanguinalis; details: for Plant response rating (0 to 100 scale), Crabgrass, Large: 0 is no effect, preemergence; for Crabgrass, Large plant response rating: postemergence
# Method in brief: as §2
# [6] = test system: giant foxtail; test: Test B pre-/postemergence herbicide test; assay type: in vivo, Setaria faberi; details: for Plant response rating (0 to 100 scale), Foxtail, Giant: 0 is no effect, preemergence; for Foxtail, Giant plant response rating: postemergence
# Method in brief: as §2
# [7] = test system: lambsquarters; test: Test B pre-/postemergence herbicide test; assay type: in vivo, Chenopodium album; details: scale 0 (no effect) to 100 (complete control)
# Method in brief: as §2
# [8] = test system: morningglory; test: Test B pre-/postemergence herbicide test; assay type: in vivo, Ipomoea coccinea; details: for Plant response rating (0 to 100 scale), Morningglory: 0 is no effect, 100 is complete control, preemergence; for Morningglory plant response rating: scale 0 (no effect) to 100 (complete control)
# Method in brief: as §1
# [9] = test system: pigweed; test: Test B pre-/postemergence herbicide test; assay type: in vivo, Amaranthus retroflexus; details: for Plant response rating (0 to 100 scale), Pigweed: 0 is no effect, 100 is complete control, preemergence; for Pigweed plant response rating: scale 0 (no effect) to 100 (complete control)
# Method in brief: as §2
# [10] = test system: velvetleaf; test: Test B pre-/postemergence herbicide test; assay type: in vivo, Abutilon theophrasti; details: for Plant response rating (0 to 100 scale), Velvetleaf: 0 is no effect, 100 is complete control, preemergence; for Velvetleaf plant response rating: scale 0 (no effect) to 100 (complete control)
# Method in brief: as §2
# [11] = test system: blackgrass; test: Test B postemergence herbicide test; assay type: in vivo, Alopecurus myosuroides; details: postemergence
# Method in brief: (§3)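 Treated at 2-leaf (paddy) or 1–4-leaf, 2–18 cm (postemergence); greenhouse 13–15 d; visual score vs control, 0 none to 100 complete control; dash = not tested.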
# [12] = test system: wheat; test: Test B postemergence herbicide test; assay type: in vivo, Triticum aestivum; parameters: key to Wheat plant response rating: 0 = no effect, 100 = complete control
# Method in brief: as §3
# [13] = test system: wild oat; test: Test B postemergence herbicide test; assay type: in vivo, Avena fatua; details: scale 0 (no effect) to 100 (complete control)
# Method in brief: as §3
# [14] = test system: rice; test: Test B flooded paddy test; assay type: in vivo, Oryza sativa; details: 1000 g ai/ha, scale 0 to 100 (0 no effect, 100 complete control)
# Method in brief: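 Each value is a visual 0–100 response rating taken against controls 13 to 15 days after treatment in the greenhouse. Plants received formulated chemical postemergence at the 1- to 4-leaf stage or, in flooded paddy, at the 2-leaf stage.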
# [15] = test system: small flower umbrella sedge; test: Test B flooded paddy test; assay type: in vivo, Cyperus difformis; details: 1000 g ai/ha, scale 0 to 100 (0 no effect, 100 complete control)
# Method in brief: as §3
# [16] = test system: ducksalad; test: Test B flooded paddy test; assay type: in vivo, Heteranthera limosa; details: 1000 g ai/ha, scale 0 to 100 (0 no effect, 100 complete control)
# Method in brief: as §3
# [17] = test system: barnyardgrass; test: Test B flooded paddy test; assay type: in vivo, Echinochloa crus-galli; details: 1000 g ai/ha, scale 0 to 100 (0 no effect, 100 complete control)
# Method in brief: as §3
# [18] = 125 g ai/ha, 100 is complete control
# [19] = 125 g ai/ha, visual rating, scale 0 (no effect) to 100 (complete control)
# [20] = 500 g ai/ha, scale 0 to 100, 0 is no effect, 100 is complete control
# [21] = 125 g ai/ha, visual rating, postemergence
# [22] = 125 g ai/ha, visual rating, scale 0 (no effect) to 100 (complete control), postemergence
# [23] = 500 g ai/ha, scale 0 to 100, 0 no effect, 100 complete control, preemergence
# [24] = Postemergence, 500 g ai/ha, scale 0 (no effect) to 100 (complete control)
SMILES,"Plant response rating (0 to 100 scale), Barnyardgrass [1, 18]","Barnyardgrass plant response rating [1, 19]","Barnyardgrass plant response rating [1, 20]","Plant response rating (0 to 100 scale), Surinam Grass ([2]; 125 g ai/ha)","Surinam Grass plant response rating [2, 21]","Surinam Grass plant response rating ([2]; Postemergence, 500 g ai/ha)","Plant response rating (0 to 100 scale), Cocklebur [3, 18]","Cocklebur plant response rating [3, 19]","Cocklebur plant response rating [3, 20]","Plant response rating (0 to 100 scale), Corn [4, 18]","Corn plant response rating [4, 19]","Corn plant response rating [4, 20]","Plant response rating (0 to 100 scale), Crabgrass, Large [5, 18]","Crabgrass, Large plant response rating [5, 19]","Crabgrass, Large plant response rating [5, 20]","Plant response rating (0 to 100 scale), Foxtail, Giant [6, 18]","Foxtail, Giant plant response rating [6, 19]","Foxtail, Giant plant response rating [6, 20]","Lambsquarters plant response rating [7, 21]","Lambsquarters plant response rating ([7]; Postemergence, 500 g ai/ha)",further results
CCc1nn(C(C)(C)CC)nc1C(=O)Nc1cc(C(=O)N2CC=CC2)ccc1F [Compound 371],0,0,0,10,0,10,0,20,30,0,10,10,10,0,10,10,10,20,40,70,"Plant response rating (0 to 100 scale), Morningglory ([8]; 125 g ai/ha): 0; Morningglory plant response rating [8, 21]: 40; Morningglory plant response rating ([8]; Postemergence, 500 g ai/ha): 70; Plant response rating (0 to 100 scale), Pigweed ([9]; 125 g ai/ha): 0; Pigweed plant response rating [9, 21]: 10; Pigweed plant response rating ([9]; Postemergence, 500 g ai/ha): 30; Plant response rating (0 to 100 scale), Velvetleaf ([10]; 125 g ai/ha): 0; Velvetleaf plant response rating [10, 21]: 10; Velvetleaf plant response rating ([10]; Postemergence, 500 g ai/ha): 20; Blackgrass plant response rating [11, 19]: 0; Blackgrass plant response rating [11, 20]: 20; Wheat plant response rating [12, 22]: 0; Wheat plant response rating [12, 23]: 0; Wheat plant response rating [12, 24]: 10; Oat, Wild plant response rating [13, 21]: 0; Oat, Wild plant response rating ([13]; Postemergence, 500 g ai/ha): 10; Rice plant response rating [14]: 40; Sedge, Umbrella plant response rating [15]: 60; Ducksalad plant response rating [16]: 90; Barnyardgrass plant response rating [17]: 30"
CCc1nn(C(C)(C)CC)nc1C(=O)Nc1cccc(OC(F)(F)F)c1 [Compound 374],0,10,20,10,10,20,0,0,30,0,10,20,0,20,20,10,20,20,10,70,"Plant response rating (0 to 100 scale), Morningglory ([8]; 125 g ai/ha): 0; Morningglory plant response rating [8, 21]: 20; Morningglory plant response rating ([8]; Postemergence, 500 g ai/ha): 20; Plant response rating (0 to 100 scale), Pigweed ([9]; 125 g ai/ha): 30; Pigweed plant response rating [9, 21]: 30; Pigweed plant response rating ([9]; Postemergence, 500 g ai/ha): 70; Plant response rating (0 to 100 scale), Velvetleaf ([10]; 125 g ai/ha): 0; Velvetleaf plant response rating [10, 21]: 10; Velvetleaf plant response rating ([10]; Postemergence, 500 g ai/ha): 20; Blackgrass plant response rating [11, 19]: 10; Blackgrass plant response rating [11, 20]: 30; Wheat plant response rating [12, 22]: 0; Wheat plant response rating [12, 23]: 0; Wheat plant response rating [12, 24]: 20; Oat, Wild plant response rating [13, 21]: 20; Oat, Wild plant response rating ([13]; Postemergence, 500 g ai/ha): 40; Rice plant response rating [14]: 20; Sedge, Umbrella plant response rating [15]: 0; Ducksalad plant response rating [16]: 50; Barnyardgrass plant response rating [17]: 40"
